Assay results published in patent US20260077018A1, “TREATMENT OF MILD TRAUMATIC BRAIN INJURY” (OXEIA BIOPHARMACEUTICALS, INC., priority 2022, published 2026).
No end group written: not given here. *: point of attachment. Octanoyl = CCCCCCCC(=O)*

Tests used:
[1] = in vivo; cited from earlier work
[2] = in vivo; cited from earlier work; remark: listed apart in the source
[3] = tested on: persistently symptomatic concussion patients; test: Phase 2 study of OXE-103 in persistently symptomatic concussion: QOLIBRI quality of life; type: in vivo, human; conditions: Treated, 13 subjects
Experimental: Describe the change in quality of life between the two groups. This aim defines one of the secondary objectives. To assess this, the Quality of Life after Brain Injury scale (QOLIBRI) and a Patient Global Assessment of Status (PGAS) are administered. […] The primary objective with this aim assesses the change between days 1 and 14.
Described herein is a randomized, double-blind, placebo-controlled design where 40 subjects will be randomized to either a placebo cohort or a treatment with OXE-103 cohort. We randomize using the RedCap database. The database is set up to share randomization allocation only with the investigational pharmacy. All subjects are consented and begin the screening period within 28 days post-injury. There is a 7-day screening period prior to randomization and commencement of study treatment to allow for assessment of stability of symptom burden. This screening period must start no later than 28 days post-injury. Starting with Day 1 (end of screening period), the treatment cohort receives OXE-103 40ug/kg SC twice daily by self-injection and the placebo group receives a placebo injection SC twice daily. Study drug and placebo are maintained and dispensed by Investigational Pharmacy. Subjects receive an 8-day supply of syringes pre-loaded with OXE-103 or placebo. Each cohort receives the 2nd set of syringes with OXE-103 or placebo at the day 7 visit. No therapies other than OXE-103 are administered during the 14-day treatment period to either cohort. After completion of 14 days of either placebo or OXE-103 treatment, starting with the Day 14 visit, other medications and therapies can be initiated for either cohort as needed.
Quality of Life (AIM 2): A secondary goal is to examine change in quality of life with treatment of sub-acute concussion. Without bewing bound by theory, it is hypothesized that OXE-103 will reduce symptoms when comparing days 1 and 15 and therefore improve quality of life as assessed by 1) Quality of Life after Brain Injury scale (QOLIBRI) and 2) a PGAS.
The QOLIBRI is a 37 item instrument specifically developed to assess health-related quality of life (HRQoL) of individuals after traumatic brain injury. This is built into a RedCap Survey that will be completed online. Since it was developed for TBI as a disease or condition-specific HRQoL instrument, it is expected to be more sensitive than generic quality of life tools. The QOLIBRI was developed by an international task force in two multi-language studies involving over 2000 persons after TBI. Use of a TBI-specific assessment of HRQoL can detect the effects of interventions by measuring physical, psychological, daily life and psychosocial changes typical of TBI. An increase/decrease of 20% in QOLIBRI is judged to represent an improvement.
The QOL measures are obtained on day 1, 4, 8, 11, 15, 21, & 44. The completion of these takes an estimated 15 minutes.
A Phase 2 study of treatment of persistently symptomatic concussion patients with ghrelin (OXE-103) was undertaken at the University of Kansas Medical Center generally as described in Example 1. The interim results are reported herein (FIG. 1).
A study to treat patients with sub-acute concussion using a pharmaceutical formulation of ghrelin (OXE-103) was performed. The completed results from treatment group of 10 patients were compared to a 3 patient placebo group receiving standard of care (SoC). Additionally, two other patients are currently undergoing the treatment arm of the study at the time of the interim report. The study was performed in a randomized, double blind fashion and compared using self-report symptom scoring, quality of life questionnaires, computerized cognitive testing assessing executive function, memory and processing speed, and accelerometer-based balance scoring.
Feedback from clinicians indicated a 20% decrease in concussion symptoms would be considered clinically significant improvement. […]

ghrelin (GSS(Octanoyl)FLSPEHQRVQQRKESKKPPAKLQPR; UniProt Q9UBU3 24-51, looked up) [OXE-103, naturally occurring peptide comprising 28 amino acids that include an N-octanoyl group at the 3-position of serine]
effects of long term use [1]: increased appetite, weight gain, and adiposity | safety in previous studies [1]: quite safe | serum half-life [2]: about 30 minutes | 20% Responders - QOLIBRI: Number of Responders ([3]; Day 1): 0 | 20% Responders - QOLIBRI: Responder % ([3]; Day 1): 0% | 30% Responders - QOLIBRI: Number of Responders ([3]; Day 1): 0 | 30% Responders - QOLIBRI: Responder % ([3]; Day 1): 0% | 20% Responders - QOLIBRI: Number of Responders ([3]; Day 4): 4 | 20% Responders - QOLIBRI: Responder % ([3]; Day 4): 31% | 30% Responders - QOLIBRI: Number of Responders ([3]; Day 4): 3 | 30% Responders - QOLIBRI: Responder % ([3]; Day 4): 23% | 20% Responders - QOLIBRI: Number of Responders ([3]; Day 8): 4 | 20% Responders - QOLIBRI: Responder % ([3]; Day 8): 31% | 30% Responders - QOLIBRI: Number of Responders ([3]; Day 8): 4 | 30% Responders - QOLIBRI: Responder % ([3]; Day 8): 31% | 20% Responders - QOLIBRI: Number of Responders ([3]; Day 11): 7 | 20% Responders - QOLIBRI: Responder % ([3]; Day 11): 54% | 30% Responders - QOLIBRI: Number of Responders ([3]; Day 11): 5 | 30% Responders - QOLIBRI: Responder % ([3]; Day 11): 38% | 20% Responders - QOLIBRI: Number of Responders ([3]; Day 15): 7 | 20% Responders - QOLIBRI: Responder % ([3]; Day 15): 54% | 30% Responders - QOLIBRI: Number of Responders ([3]; Day 15): 5 | 30% Responders - QOLIBRI: Responder % ([3]; Day 15): 38% | 20% Responders - QOLIBRI: Number of Responders ([3]; Day 21): 9 | 20% Responders - QOLIBRI: Responder % ([3]; Day 21): 69% | 30% Responders - QOLIBRI: Number of Responders ([3]; Day 21): 7 | 30% Responders - QOLIBRI: Responder % ([3]; Day 21): 54% | 20% Responders - QOLIBRI: Number of Responders ([3]; Day 44): 11 | 20% Responders - QOLIBRI: Responder % ([3]; Day 44): 85% | 30% Responders - QOLIBRI: Number of Responders ([3]; Day 44): 10 | 30% Responders - QOLIBRI: Responder % ([3]; Day 44): 77%
